# Patent US12521415B2, “Accelerating repair of mucosal injury using gold(III) compounds” (University of Kentucky Research Foundation, priority 2020, dated 2026)
# Tests used:
# [1] = system: breast cancer (MDA-MB-231); assay: Mitochondrial uptake of AuPhos by gold content (graphite furnace atomic absorption spectroscopy) in MDA-MB-231; format: cell-based; settings: cancerous epithelial cells (MDA-MB-231)
# Text: (§1) FIGS. 8A-8J present properties of AuPhos. FIG. 8A includes a chemical structure of AuPhos. FIG. 8B includes extrapolated AuPhos-induced OCR (complex I) in liver mitochondria. […] FIG. 8E provides weight change in AuPhos-treated mice over time. FIG. 8F presents stability of AuPhos in PBS and DMEM. FIG. 8G presents stability of AuPhos in PBS and DMEM. FIG. 8H includes an AuPhos-induced Heat map of DEG (left Panel), obtained using log 2(Fold Change) and p-Value <0.00001 thresholds in MDA-MB-231(107) cells (n=2), and the top six hits of KEGG analysis (right panel). FIG. 8I presents biodistribution and pharmacokinetics of AuPhos in different tissues; Colon, Small bowel, Lung, Kidney, Spleen, Liver, Heart and Blood after single dose (oral, 25 mg/kg) administration of AuPhos at 6 h, 12 h and 24 h. FIG. 8J presents biodistribution and pharmacokinetics of AuPhos in different tissues stool after single dose (oral, 25 mg/kg) administration of AuPhos at 6 h, 12 h and 24 h.
# Changing the geometry and stabilizing ligands of gold compounds, such as the use of bidentate frameworks, promote different mitochondrial effects.
# MDA-MB-231 cells = assay: Transcriptomics of global mRNA changes after AuPhos exposure; format: cell-based; settings: 12 h exposure
# Text: as §1
# This observation was mitochondrial complex I-driven when different substrates, i.e. pyruvate and succinate, were used to measure the OCR. Transcriptomics was used to study global changes in mRNA in response to a 12 h exposure of AuPhos to MDA-MB-231 cells (FIG. 8H).
# [2] = Biodistribution and pharmacokinetics of AuPhos in tissues and stool after single oral dose; format: in vivo, mouse; settings: single oral 25 mg/kg dose
# Text: as §1
# FIGS. 16A-16E illustrate the pharmacokinetics and effects of AuPhos on mitochondrial bioenergetics. FIG. 16A. Biodistribution and pharmacokinetics of AuPhos in different tissues; Colon, Small bowel, Spleen, Liver after a single intragastric (i.g.) gavage (25 mg/kg) with measurements of AuPhos tissue levels (graphite furnace atomic absorption spectroscopy) at times indicated. FIG. 16B. […]
smiles,measurement,setting,value
[Cl][Au]1([c]2ccccc2Cc2ccccn2)[P](c2ccccc2)(c2ccccc2)c2ccccc2[P]1(c1ccccc1)c1ccccc1 [AuPhos],mitochondrial localization (gold content),[1],localizes in the mitochondria
same,differentially expressed genes (mRNA),MDA-MB-231 cells,"mitochondrial OXPHOS genes: MT-ND1-5, MT-CYB, MT-CO1-3, and MTATP6 were modulated"
same,evacuation in the stool,[2],≤ 12 h
same,tissue biodistribution,[2],clear accumulation in the small and large bowel tissues
